Measured values published in US10624340B2, “Chemical combinations for attracting Vespidae” (priority 2017, dated 2020).
Where “and” joins values, the source holds several entries; their conditions need not be identical. Equal entries are not always repeated.

Experiments:
Format in all cases: in vivo, V. pensylvanica
Vespidae [1] = experiment: Box attraction test of heptyl butyrate with citric, malic or tartaric acid (Experiment 3); settings: 500 μL of each agent, white box, 15 min tests, three tests, July 2017, acid alone, heptyl butyrate alone and combination run together, * P < 0.05 vs heptyl butyrate alone
Protocol: Materials and Methods. The third experiment evaluated combinations of heptyl butyrate and citric acid, malic acid, and tartaric acid versus heptyl butyrate alone as baits for Vespidae.
Attraction Measurements. Testing the efficacy of attraction of the chemicals was conducted using an apparatus that allows visualization of the Vespidae to an area with the attractant. This can be prepared in a variety of ways including the use of white 4-sided boxes in which the different attractants are placed at the bottom of the box. Attraction of the Vespidae to the boxes is visualized and Vespidae are counted when they fly into the plane of the box toward the attractant. Each experiment lasted 15 minutes and every 5 minutes, the boxes would be cleared of Vespidae and rotated counterclockwise to eliminate any possible effect of direction. Each experiment was conducted three times over the course of one day, for a total of 9 replicates per test.
Boxes were prepared using white paper (one foot square) and applying them to equal sizes of cardboard to create a 4-sided box with the white paper in the inside of the box. Boxes were placed in a triangle pattern on the ground and spaced equally three to four feet apart. Disposable plates with clipped-on absorbent material in them were placed in the bottom on the boxes. Each tested combination of attractants was poured onto the absorbent material on the plate and placed into a testing box.
Chemical Treatments. Four chemical treatments were selected and combined with heptyl butyrate and compared to heptyl butyrate alone as baits for Vespidae. Chemicals combined with heptyl butyrate included citric acid solution (5 grams in 50 mLs of water), malic acid (6 grams in 50 mLs of water), and tartaric acid (7 grams in 50 mLs of water). Experiment 3 used 500 μL of each test agent combined for a total of 1000 μL total volume in each test. The heptyl butyrate test used 500 μL of water and 500 µL of heptyl butyrate.

Vespidae [2] = experiment: Box attraction test of single test agents (Example 1); settings: 500 μL test agent in white box, 15 min tests, two tests, San Mateo County, July 2016; acetic acid 5%, citric acid 750 mM, ethanol 40%
Vespidae [3] = experiment: 14-day trapping test in RESCUE Reusable Yellowjacket traps (Experiment 4); settings: 2 mL heptyl butyrate with or without 2 mL acid solution in trap, hung 14 days, counted day 15
Protocol: Materials and Methods. The fourth experiment evaluated combinations of heptyl butyrate and citric acid, malic acid, and tartaric acid versus heptyl butyrate alone as baits for Vespidae. Heptyl butyrate was included for comparison because of its known attractiveness to V. pensylvanica (Davis et al., 1969, Supra).
Attraction Measurements. Testing the efficacy of attraction of the chemicals was conducted using four standard commercially-available RESCUE Reusable Yellowjacket® traps filled with the various test agents. In this experiment, the traps were set and hung 5-6 feet off of the ground with all traps separated by 3-4 feet from one another. Chemical treatments were added to the attractant chambers (cotton absorbant material) of the trap and hung for 14 days. Measurements of the number of trapped Vespidae were made on day 15.
Chemical Treatments. Four chemical treatments were selected and combined with heptyl butyrate and compared to heptyl butyrate alone as baits for Vespidae. Chemicals combined with heptyl butyrate included citric acid solution (5 grams in 50 mLs of water), malic acid (6 grams in 50 mLs of water), and tartaric acid (7 grams in 50 mLs of water). Experiment 4 used 2 mL of the standard attractant (heptyl butyrate) as is found in the RESCUE reusable yellowjacket traps for the heptyl butyrate alone test. […]

| Structure (SMILES) | Total Number of Vespidae Attracted to Different Test Conditions (Vespidae [1]) | Total Number of Vespidae Attracted to Single Test Agents, Sum Test 1 + 2 (Vespidae [2]) | Total Number of Vespidae Attracted to Different Test Conditions (Vespidae [1]; listed as heptyl butyrate) | Total Number of V. Pensylvanica (Vespidae) Trapped During a 14-Day Test (Vespidae [3]) |
| --- | --- | --- | --- | --- |
| O=C(O)C(O)C(O)C(=O)O (stereo not shown) [Tartaric Acid, tartaric acid] | 15 |  |  |  |
| CC(O)C(=O)O (stereo not shown) [Lactic Acid, lactic acid] |  | 5 |  |  |
| CC(C)CO [Isobutanol, isobutanol] |  | 21 |  |  |
| O=C(O)CC(O)C(=O)O (stereo not shown) [Malic Acid, malic acid] | 19 |  |  |  |
| O=C(O)CC(O)(CC(=O)O)C(=O)O [Citric Acid, citric acid] | 22 | 10 |  |  |
| CCO [Ethanol, ethanol] |  | 2 |  |  |
| CC(=O)O [Acetic Acid, acetic acid] |  | 2 |  |  |
| CCCCCCCOC(=O)CCC [Heptyl Butyrate, heptyl butyrate] | 355 and 590 and 477 | 343 | 477 and 355 and 590 | 91 |
| CCCC(=O)O [Butyric Acid, butyric acid] |  | 5 |  |  |
